Assay results: US12540118B2, “Dendrene amide compound, bactericide and use thereof” (Jiangsu Flag Chemical Industry Co., Ltd., priority 2020, dated 2026)

Tests used:
Sphaerotheca fuliginea = Sphaerotheca fuliginea potting method; assay type: in vivo; settings: Podosphaera fuliginea; 100 mg/L; read-out: Sphaerotheca fuliginea control rating
Method: The fungicidal activity of the control agents and target compounds are determined. The test and investigation method refers to SOP-SC-1101 sphaerotheca fuliginea potting method in disinfectant rolls written by KANGZHUO and GUBAOGEN in “Standard operation specification for testing biological activity of pesticides”.

Erysiphe graminis = Erysiphe graminis potting method; assay type: in vivo; settings: Blumeria graminis; 100 mg/L; read-out: Erysiphe graminis control rating
Method: The fungicidal activity of the control agents and target compounds are determined. The test and investigation method refers to SOP-SC-1116 Erysiphe graminis potting method in disinfectant rolls written by KANGZHUO and GUBAOGEN in “Standard operation specification for testing biological activity of pesticides”.

succinate dehydrogenase = target: T1, succinate dehydrogenase (Sus scrofa, UniProt A5GZW8+D0VWV4+Q007T0); assay: Enzyme activity assay, succinate dehydrogenase (DCIP reduction); assay type: biochemical, porcine; settings: read-out: Inhibitors (10 μM, SQR)
T1 construct: isolated from porcine hearts; from tissue; host or cells: porcine heart
Method: The inhibitory activities of control agents and target compounds on succinate dehydrogenase are determined.
The enzyme used in this test example is succinate dehydrogenase, which is isolated from porcine hearts.
The test method comprises the following steps: The total volume of the system is 1.8 ml, and the system contained 100 mM Na2HPO4—NaH2PO4 buffer (pH=7.4), 0.3 mM EDTA, 20 mM sodium succinate, 53 μM DCIP (2,6-dichloroindophenol sodium), and 2 nM succinate dehydrogenase. Thermostatic waterbath at 23° C. and magnetic stirring at 600 rpm. The decrease in the light absorption of the substrate DCIP is monitored at a wavelength of 600 nm and experimental points in a linear range are collected. Control substrate consumption not more than 5% of the experimental points. The molar extinction coefficient of DCIP is 21 mM^−1 cm^−1. And calculating the reduction yield of the DCIP in the reaction time, fitting a linear slope, and deducting the baseline slope to obtain the initial reaction speed.

T1 sequence (Q0QF01 43-664 partner): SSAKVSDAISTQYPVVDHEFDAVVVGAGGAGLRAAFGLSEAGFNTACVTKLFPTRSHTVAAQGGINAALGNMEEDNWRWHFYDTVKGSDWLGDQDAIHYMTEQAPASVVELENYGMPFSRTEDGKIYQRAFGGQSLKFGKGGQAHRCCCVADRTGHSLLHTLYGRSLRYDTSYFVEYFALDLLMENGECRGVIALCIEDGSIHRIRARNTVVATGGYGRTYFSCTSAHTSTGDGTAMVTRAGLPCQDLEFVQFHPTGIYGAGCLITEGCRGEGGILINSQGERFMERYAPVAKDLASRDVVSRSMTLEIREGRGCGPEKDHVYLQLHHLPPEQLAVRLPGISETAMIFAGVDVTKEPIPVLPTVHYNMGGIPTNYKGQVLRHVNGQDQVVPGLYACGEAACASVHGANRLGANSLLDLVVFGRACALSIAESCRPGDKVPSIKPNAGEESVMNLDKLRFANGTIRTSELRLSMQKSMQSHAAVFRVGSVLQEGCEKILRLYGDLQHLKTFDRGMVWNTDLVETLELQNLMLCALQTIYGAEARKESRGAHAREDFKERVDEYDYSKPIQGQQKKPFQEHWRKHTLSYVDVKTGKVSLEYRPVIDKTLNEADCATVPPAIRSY
T1 sequence (Q007T0 29-280): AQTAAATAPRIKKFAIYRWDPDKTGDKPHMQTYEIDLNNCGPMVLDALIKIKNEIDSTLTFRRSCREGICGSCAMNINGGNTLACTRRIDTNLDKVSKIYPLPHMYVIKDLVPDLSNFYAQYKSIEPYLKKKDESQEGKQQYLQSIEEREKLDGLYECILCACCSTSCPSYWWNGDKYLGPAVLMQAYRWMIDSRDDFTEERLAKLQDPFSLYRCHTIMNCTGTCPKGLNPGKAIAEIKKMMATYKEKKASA
T1 sequence (D0VWV4 30-169): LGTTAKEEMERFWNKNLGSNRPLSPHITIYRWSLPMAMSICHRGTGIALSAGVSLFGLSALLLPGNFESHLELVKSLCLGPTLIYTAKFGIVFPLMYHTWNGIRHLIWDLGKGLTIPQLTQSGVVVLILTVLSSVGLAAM
T1 sequence (A5GZW8 57-159 limits assumed): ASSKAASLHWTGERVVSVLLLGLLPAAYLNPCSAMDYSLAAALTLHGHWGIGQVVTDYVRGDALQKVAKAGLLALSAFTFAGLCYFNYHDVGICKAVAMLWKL

Row | Compound | inhibition at 10 µM (succinate dehydrogenase) [%] | pest or weed control at 100 µg/mL (Sphaerotheca fuliginea) [%] | pest or weed control at 100 µg/mL (Erysiphe graminis) [%]
1 | C=C(c1c(F)cccc1F)C(C)N(C(=O)c1c(C(F)F)nn(C)c1F)C1CC1 (stereo not drawn) [Compound 78] | > 90 | 80 to 100 | 80 to 100
2 | C=C(c1c(F)cc(F)cc1F)C(C)N(C(=O)c1c(C(F)F)nn(C)c1F)C1CC1 (stereo not drawn) [Compound 79] | > 90 | 80 to 100 | 80 to 100
3 | C=C(c1ccccc1Br)C(C)N(C(=O)c1c(C(F)F)nn(C)c1F)C1CC1 (stereo not drawn) [Compound 80] | > 90 | 80 to 100 | 80 to 100
4 | C=C(c1cccc(Br)c1)C(C)N(C(=O)c1c(C(F)F)nn(C)c1F)C1CC1 (stereo not drawn) [Compound 81] | > 90 | 80 to 100 | 80 to 100
5 | C=C(c1ccc(Br)cc1Br)C(C)N(C(=O)c1c(C(F)F)nn(C)c1F)C1CC1 (stereo not drawn) [Compound 82] | > 90 | 80 to 100 | 80 to 100
6 | C=C(c1cc(Br)ccc1Br)C(C)N(C(=O)c1c(C(F)F)nn(C)c1F)C1CC1 (stereo not drawn) [Compound 83] | > 90 | 80 to 100 | 80 to 100
7 | C=C(c1c(Br)cccc1Br)C(C)N(C(=O)c1c(C(F)F)nn(C)c1F)C1CC1 (stereo not drawn) [Compound 84] | > 90 | 80 to 100 | 80 to 100
8 | C=C(c1c(Br)cc(Br)cc1Br)C(C)N(C(=O)c1c(C(F)F)nn(C)c1F)C1CC1 (stereo not drawn) [Compound 85] | > 90 | 80 to 100 | 80 to 100
9 | C=C(CN(C(=O)c1c(C(F)F)nn(C)c1F)C1CC1)c1cccc(Br)c1Br [Compound 86] | > 90 | 80 to 100 | 80 to 100
10 | C=C(c1ccccc1C)C(C)N(C(=O)c1c(C(F)F)nn(C)c1F)C1CC1 (stereo not drawn) [Compound 87] | > 90 | 80 to 100 | 80 to 100
11 | C=C(c1ccc(C)cc1C)C(C)N(C(=O)c1c(C(F)F)nn(C)c1F)C1CC1 (stereo not drawn) [Compound 88] | > 90 | 80 to 100 | 80 to 100
12 | C=C(c1cc(C)ccc1C)C(C)N(C(=O)c1c(C(F)F)nn(C)c1F)C1CC1 (stereo not drawn) [Compound 89] | > 90 | 80 to 100 | 80 to 100
13 | C=C(c1c(C)cccc1C)C(C)N(C(=O)c1c(C(F)F)nn(C)c1F)C1CC1 (stereo not drawn) [Compound 90] | > 90 | 80 to 100 | 80 to 100
14 | C=C(c1c(C)cc(C)cc1C)C(C)N(C(=O)c1c(C(F)F)nn(C)c1F)C1CC1 (stereo not drawn) [Compound 91] | > 90 | 80 to 100 | 80 to 100
15 | C=C(c1cc(C(C)C)ccc1C)C(C)N(C(=O)c1c(C(F)F)nn(C)c1F)C1CC1 (stereo not drawn) [Compound 92] | > 90 | 80 to 100 | 80 to 100
16 | C=C(c1cc(C)ccc1C(C)C)C(C)N(C(=O)c1c(C(F)F)nn(C)c1F)C1CC1 (stereo not drawn) [Compound 93] | > 90 | 80 to 100 | 80 to 100
17 | C=C(c1cc(C)ccc1C(C)(C)C)C(C)N(C(=O)c1c(C(F)F)nn(C)c1F)C1CC1 (stereo not drawn) [Compound 94] | > 90 | 80 to 100 | 80 to 100
18 | C=C(c1cc(C(C)(C)C)ccc1C)C(C)N(C(=O)c1c(C(F)F)nn(C)c1F)C1CC1 (stereo not drawn) [Compound 95] | > 90 | 80 to 100 | 80 to 100
19 | C=C(c1ccc(C(C)C)cc1C)C(C)N(C(=O)c1c(C(F)F)nn(C)c1F)C1CC1 (stereo not drawn) [Compound 96] | > 90 | 80 to 100 | 80 to 100
20 | C=C(c1ccc(Cl)cc1F)C(C)N(C(=O)c1c(C(F)F)nn(C)c1F)C1CC1 (stereo not drawn) [Compound 97] | > 90 | 80 to 100 | 80 to 100
21 | C=C(c1ccc(F)cc1Cl)C(C)N(C(=O)c1c(C(F)F)nn(C)c1F)C1CC1 (stereo not drawn) [Compound 98] | > 90 | 80 to 100 | 80 to 100
22 | C=C(c1cc(Cl)ccc1F)C(C)N(C(=O)c1c(C(F)F)nn(C)c1F)C1CC1 (stereo not drawn) [Compound 99] | > 90 | 80 to 100 | 80 to 100
23 | C=C(c1cc(C(F)(F)F)ccc1Cl)C(C)N(C(=O)c1c(C(F)F)nn(C)c1F)C1CC1 (stereo not drawn) [Compound 100] | > 90 | 80 to 100 | 80 to 100
24 | C=C(c1cccc(C(F)(F)F)c1Cl)C(C)N(C(=O)c1c(C(F)F)nn(C)c1F)C1CC1 (stereo not drawn) [Compound 101] | > 90 | 80 to 100 | 80 to 100

Second part, led by results:

Row | inhibition at 10 µM (succinate dehydrogenase) [%] | Compound | pest or weed control at 100 µg/mL (Sphaerotheca fuliginea) [%] | pest or weed control at 100 µg/mL (Erysiphe graminis) [%]
25 | > 90 | C=C(c1ccc(C(F)(F)F)cc1Cl)C(C)N(C(=O)c1c(C(F)F)nn(C)c1F)C1CC1 (stereo not drawn) [Compound 102] | 80 to 100 | 80 to 100
26 | > 90 | C=C(c1ccc(S(C)(=O)=O)cc1Cl)C(C)N(C(=O)c1c(C(F)F)nn(C)c1F)C1CC1 (stereo not drawn) [Compound 103] | 80 to 100 | 80 to 100
27 | > 90 | C=C(c1cccc(S(C)(=O)=O)c1)C(C)N(C(=O)c1c(C(F)F)nn(C)c1F)C1CC1 (stereo not drawn) [Compound 104] | 80 to 100 | 80 to 100
28 | > 90 | C=C(c1ccccc1S(C)(=O)=O)C(C)N(C(=O)c1c(C(F)F)nn(C)c1F)C1CC1 (stereo not drawn) [Compound 105] | 80 to 100 | 80 to 100
29 | > 90 | C=C(c1cc(S(C)(=O)=O)ccc1Cl)C(C)N(C(=O)c1c(C(F)F)nn(C)c1F)C1CC1 (stereo not drawn) [Compound 106] | 80 to 100 | 80 to 100
30 | > 90 | C=C(c1ccc(S(=O)(=O)CC)cc1)C(C)N(C(=O)c1c(C(F)F)nn(C)c1F)C1CC1 (stereo not drawn) [Compound 107] | 80 to 100 | 80 to 100
31 | > 90 | C=C(c1cccc(S(=O)(=O)CC)c1)C(C)N(C(=O)c1c(C(F)F)nn(C)c1F)C1CC1 (stereo not drawn) [Compound 108] | 80 to 100 | 80 to 100
32 | > 90 | C=C(c1ccc(C#CC2CC2)cc1F)C(C)N(C(=O)c1c(C(F)F)nn(C)c1F)C1CC1 (stereo not drawn) [Compound 110] | 80 to 100 | 80 to 100
33 | > 90 | Cn1nc(C(F)F)c(C(=O)N(CC(=C(Cl)Cl)c2ccccc2)C2CC2)c1F [Compound 111] | 80 to 100 | 80 to 100
34 | > 90 | Cn1nc(C(F)F)c(C(=O)N(CC(=C(Cl)Cl)c2ccc(Cl)cc2)C2CC2)c1F [Compound 112] | 80 to 100 | 80 to 100
35 | > 90 | Cn1nc(C(F)F)c(C(=O)N(CC(=C(Cl)Cl)c2ccc(Cl)cc2)C2CC2)c1Cl [Compound 113] | 80 to 100 | 80 to 100
36 | > 90 | Cn1cc(C(=O)N(CC(=C(Cl)Cl)c2ccc(Cl)cc2)C2CC2)c(C(F)F)n1 [Compound 114] | 80 to 100 | 80 to 100
37 | > 90 | Cn1nc(C(F)F)c(C(=O)N(CC(=C(Cl)Cl)c2ccccc2F)C2CC2)c1F [Compound 115] | 80 to 100 | 80 to 100
38 | > 90 | Cn1nc(C(F)F)c(C(=O)N(CC(=C(Cl)Cl)c2ccccc2Cl)C2CC2)c1F [Compound 116] | 80 to 100 | 80 to 100
39 | > 90 | Cn1nc(C(F)F)c(C(=O)N(CC(=C(Cl)Cl)c2cccc(Cl)c2)C2CC2)c1F [Compound 117] | 80 to 100 | 80 to 100
40 | > 90 | Cn1nc(C(F)F)c(C(=O)N(CC(=C(Cl)Cl)c2ccc(Cl)cc2Cl)C2CC2)c1F [Compound 118] | 80 to 100 | 80 to 100
41 | > 90 | Cn1nc(C(F)F)c(C(=O)N(CC(=C(Cl)Cl)c2cc(Cl)ccc2Cl)C2CC2)c1F [Compound 119] | 80 to 100 | 80 to 100
42 | > 90 | Cn1nc(C(F)F)c(C(=O)N(CC(=C(Cl)Cl)c2c(Cl)cccc2Cl)C2CC2)c1F [Compound 120] | 80 to 100 | 80 to 100
